Assay results reported in ChEMBL document CHEMBL4808247 (Bioorg Med Chem, 2021).
≈ marks a conversion by molar mass, not a printed value.

Experiments:
Enterobacter cloacae [1] = assay: Antibacterial activity against Enterobacter cloacae IR32 producing class B beta-lactamase, NDM1 assessed as reduction in microbial growth incubated for 16 to 20 hrs by broth microdilution method; format: functional; conditions: time 16-20 hrs
Escherichia coli [2] = assay: Antibacterial activity against Escherichia coli NIHJ JC-2 assessed as reduction in microbial growth incubated for 16 to 20 hrs by broth microdilution method; format: functional; conditions: time 16-20 hrs
Escherichia coli [3] = assay: Antibacterial activity against Escherichia coli SR34100 producing class A beta-lactamase, CTX-M-15 assessed as reduction in microbial growth incubated for 16 to 20 hrs by broth microdilution method; format: functional; conditions: time 16-20 hrs
Enterobacter cloacae [4] = assay: Antibacterial activity against Enterobacter cloacae SR36276 producing class C beta-lactamase, AmpC assessed as reduction in microbial growth incubated for 16 to 20 hrs by broth microdilution method; format: functional; conditions: time 16-20 hrs
Klebsiella pneumoniae [5] = assay: Antibacterial activity against Klebsiella pneumoniae PLE producing class D beta-lactamase, OXA-48 assessed as reduction in microbial growth incubated for 16 to 20 hrs by broth microdilution method; format: functional; conditions: time 16-20 hrs
Klebsiella pneumoniae [6] = assay: Antibacterial activity against Klebsiella pneumoniae JMI:211 producing class A beta-lactamase, KPC-2 assessed as reduction in microbial growth incubated for 16 to 20 hrs by broth microdilution method; format: functional; conditions: time 16-20 hrs
[7] = Inhibition of CMY-2 in Escherichia coil BL21 assessed as inhibition of nitrocefin hydrolysis measured every 3 mins for 15 mins by UV spectrophotometer analysis; set-up: species or system Escherichia coli BL21
Klebsiella pneumoniae [8] = assay: Antibacterial activity against Klebsiella pneumoniae ATCC13883 assessed as reduction in microbial growth incubated for 16 to 20 hrs by broth microdilution method; format: functional; conditions: time 16-20 hrs
Escherichia coli [9] = assay: Antibacterial activity against Escherichia coli BL21(DE3) transfected with pET9a vector harboring class D beta lactamase, OXA-48 incubated for 16 to 20 hrs by broth microdilution method; format: functional; conditions: time 16-20 hrs
Escherichia coli [10] = assay: Antibacterial activity against Escherichia coli BL21(DE3) transfected with pET9a empty vector incubated for 16 to 20 hrs by broth microdilution method; format: functional; conditions: time 16-20 hrs
Escherichia coli [11] = assay: Antibacterial activity against Escherichia coli BL21(DE3) transfected with pET9a vector harboring class A beta lactamase, CTX-M-15 incubated for 16 to 20 hrs by broth microdilution method; format: functional; conditions: time 16-20 hrs
Escherichia coli [12] = assay: Antibacterial activity against Escherichia coli BL21(DE3) transfected with pET9a vector harboring class B beta lactamase, NDM-1 incubated for 16 to 20 hrs by broth microdilution method; format: functional; conditions: time 16-20 hrs
Escherichia coli [13] = assay: Antibacterial activity against Escherichia coli BL21(DE3) transfected with pET9a vector harboring class C beta lactamase, AmpC incubated for 16 to 20 hrs by broth microdilution method; format: functional; conditions: time 16-20 hrs
Klebsiella pneumoniae [14] = assay: Antibacterial activity against Klebsiella pneumonia ATCC 13883 infected in cyclophosphamide-induced neutropenic Jcl:ICR mouse model assessed as log10 reduction in CFU at 10 mg/kg, sc administered at 2, 5 and 8 hrs after infection and measured at 10 hrs after infection; format: functional
Klebsiella pneumoniae [15] = assay: Antibacterial activity against Klebsiella pneumonia ATCC 13883 infected in cyclophosphamide-induced neutropenic Jcl:ICR mouse model assessed as log10 reduction in CFU at 3 mg/kg, sc administered at 2, 5 and 8 hrs after infection and measured at 10 hrs after infection; format: functional
Enterobacterales [16] = assay: Antimicrobial activity against Enterobacterales producing KPC assessed as reduction in microbial growth measured after 16 to 20 hrs in presence of avibactam by broth microdilution method; format: functional; conditions: time 16-20 hrs
Enterobacterales [17] = assay: Antimicrobial activity against Enterobacterales producing NDM assessed as reduction in microbial growth measured after 16 to 20 hrs in presence of avibactam by broth microdilution method; format: functional; conditions: time 16-20 hrs
Enterobacterales [18] = assay: Antimicrobial activity against Enterobacterales producing VIM assessed as reduction in microbial growth measured after 16 to 20 hrs in presence of avibactam by broth microdilution method; format: functional; conditions: time 16-20 hrs
Enterobacterales [19] = assay: Antimicrobial activity against Enterobacterales producing OXA-48 assessed as reduction in microbial growth measured after 16 to 20 hrs in presence of avibactam by broth microdilution method; format: functional; conditions: time 16-20 hrs
Escherichia coli [20] = assay: Antibacterial activity against Escherichia coli NIHJ JC-2 strain assessed as reduction in microbial growth incubated for 16 to 20 hrs in presence of avibactam by broth microdilution method; format: functional; conditions: time 16-20 hrs
Escherichia coli [21] = assay: Antibacterial activity against Escherichia coli SR34100 producing class A beta lactamase, CTX-M-15 assessed as reduction in microbial growth incubated for 16 to 20 hrs in presence of avibactam by broth microdilution method
Enterobacter cloacae [22] = assay: Antibacterial activity against Enterobacter cloacae IR32 producing class B beta-lactamase, NDM-1 assessed as reduction in microbial growth incubated for 16 to 20 hrs in presence of avibactam by broth microdilution method; format: functional; conditions: time 16-20 hrs
Enterobacter cloacae [23] = assay: Antibacterial activity against Enterobacter cloacae SR36276 producing class C beta lactamase, AmpC assessed as reduction in microbial growth incubated for 16 to 20 hrs in presence of avibactam by broth microdilution method; format: functional; conditions: time 16-20 hrs
Klebsiella pneumoniae [24] = assay: Antibacterial activity against Klebsiella pneumoniae PLE producing class D beta lactamase, OXA-48 assessed as reduction in microbial growth incubated for 16 to 20 hrs in presence of avibactam by broth microdilution method; format: functional; conditions: time 16-20 hrs
Klebsiella pneumoniae [25] = assay: Antibacterial activity against Klebsiella pneumoniae JMI:211 producing class A beta lactamase, KPC-2 assessed as reduction in microbial, growth incubated for 16 to 20 hrs in presence of avibactam by broth microdilution method; format: functional; conditions: time 16-20 hrs
Enterobacter cloacae [26] = assay: Antibacterial activity against Enterobacter cloacae 1,261,347 producing class A beta lactamase, PER-2 assessed as reduction in microbial growth incubated for 16 to 20 hrs in presence of avibactam by broth microdilution method; format: functional; conditions: time 16-20 hrs

For `Nc1nc(/C(=N/OCC(=O)O)C(=O)N[C@@H]2C(=O)N3[C@@H]2SC[C@@H]2CC(=O)O[C@@]23C(=O)O)ns1`, the MIC (Enterobacter cloacae [1]) was 0.5 µg/mL, the MIC (Escherichia coli [2]) was 0.125 µg/mL and the MIC (Escherichia coli [3]) was 0.25 µg/mL. The MIC (Enterobacter cloacae [4]) was 4 µg/mL, the MIC (Klebsiella pneumoniae [5]) was 1 µg/mL and the MIC (Klebsiella pneumoniae [6]) was 0.125 µg/mL.

Work on `Nc1nc(/C(=N/OCC(=O)O)C(=O)N[C@@H]2C(=O)N3[C@@H]2SC[C@@H]2CC(=O)O[C@@]23C(=O)O)cs1` (stereo in doubt) yielded an MIC (Enterobacter cloacae [1]) of 0.125 µg/mL, an MIC (Escherichia coli [2]) of 0.063 µg/mL and an MIC (Escherichia coli [3]) of 0.25 µg/mL. It also gave an MIC (Enterobacter cloacae [4]) of 8 µg/mL, an MIC (Klebsiella pneumoniae [5]) of 1 µg/mL and an MIC (Klebsiella pneumoniae [6]) of 0.125 µg/mL. For the same compound, the Ki [7] was 400 nM and the MIC (Klebsiella pneumoniae [8]) was 0.125 µg/mL.

Work on `CC(C)(O/N=C(\C(=O)N[C@@H]1C(=O)N2C(C(=O)[O-])=C(C[n+]3ccccc3)CS[C@H]12)c1csc(N)n1)C(=O)O` [CEFTAZIDIME] yielded an MIC (Enterobacter cloacae [1]) greater than 32 µg/mL, an MIC (Escherichia coli [9]) of 0.063 µg/mL (≈ 0.115 µM) and an MIC (Escherichia coli [10]) of 0.063 µg/mL (≈ 0.115 µM). For the same compound, the MIC (Escherichia coli [11]) was 0.25 µg/mL (≈ 0.457 µM), the MIC (Escherichia coli [12]) was greater than 16 µg/mL and the MIC (Escherichia coli [13]) was 0.25 µg/mL (≈ 0.457 µM). For the same compound, the MIC (Escherichia coli [2]) was 0.25 µg/mL, the MIC (Escherichia coli [3]) was greater than 32 µg/mL and the MIC (Enterobacter cloacae [4]) was greater than 32 µg/mL. It also gave an MIC (Klebsiella pneumoniae [5]) of 1 µg/mL, an MIC (Klebsiella pneumoniae [8]) of 0.25 µg/mL and an Activity (Klebsiella pneumoniae [14]) of 3.05 log10CFU. It also gave an Activity (Klebsiella pneumoniae [15]) of 2.67 log10CFU, an MIC50 (Enterobacterales [16]) of 4 µg/mL and an MIC90 (Enterobacterales [16]) greater than 64 µg/mL. For the same compound, the MIC50 (Enterobacterales [17]) was greater than 64 µg/mL, the MIC90 (Enterobacterales [17]) was greater than 64 µg/mL and the MIC50 (Enterobacterales [18]) was greater than 64 µg/mL. The MIC90 (Enterobacterales [18]) was greater than 64 µg/mL, the MIC50 (Enterobacterales [19]) was 0.125 µg/mL and the MIC90 (Enterobacterales [19]) was 4 µg/mL. It also gave an MIC (Escherichia coli [20]) of 0.25 µg/mL, an MIC (Escherichia coli [21]) of 1 µg/mL and an MIC (Enterobacter cloacae [22]) greater than 32 µg/mL. For the same compound, the MIC (Enterobacter cloacae [23]) was 1 µg/mL, the MIC (Klebsiella pneumoniae [24]) was 0.25 µg/mL and the MIC (Klebsiella pneumoniae [25]) was 1 µg/mL. The MIC (Enterobacter cloacae [26]) was greater than 32 µg/mL.

`Nc1nc(/C(=N/OCC(=O)O)C(=O)N[C@@H]2C(=O)N3[C@@H]2SC[C@@H]2CC(=O)O[C@@]23C(=O)O)c(Cl)s1` gave an MIC (Enterobacter cloacae [1]) of 2 µg/mL, an MIC (Escherichia coli [2]) of 1 µg/mL and an MIC (Escherichia coli [3]) of 4 µg/mL. The MIC (Enterobacter cloacae [4]) was 8 µg/mL, the MIC (Klebsiella pneumoniae [5]) was 16 µg/mL and the MIC (Klebsiella pneumoniae [6]) was 4 µg/mL.

For `C[C@@H](O/N=C(\C(=O)N[C@@H]1C(=O)N2[C@@H]1[S@@+]([O-])C[C@@H]1CC(=O)O[C@@]12C(=O)O)c1csc(N)n1)C(=O)O` (stereo in doubt), the MIC (Enterobacter cloacae [1]) was 0.125 µg/mL, the MIC (Escherichia coli [2]) was 0.125 µg/mL and the MIC (Escherichia coli [3]) was 0.5 µg/mL. It also gave an MIC (Enterobacter cloacae [4]) of 0.25 µg/mL, an MIC (Klebsiella pneumoniae [5]) of 0.5 µg/mL and an MIC (Klebsiella pneumoniae [6]) of 0.25 µg/mL.

Work on `C[C@H](O/N=C(\C(=O)N[C@@H]1C(=O)N2[C@@H]1SC[C@@H]1CC(=O)O[C@@]12C(=O)O)c1csc(N)n1)C(=O)O` (stereo in doubt) yielded an MIC (Enterobacter cloacae [1]) of 0.25 µg/mL, an MIC (Escherichia coli [2]) of 0.125 µg/mL and an MIC (Escherichia coli [3]) of 0.5 µg/mL. It also gave an MIC (Enterobacter cloacae [4]) of 16 µg/mL, an MIC (Klebsiella pneumoniae [5]) of 0.5 µg/mL and an MIC (Klebsiella pneumoniae [6]) of 0.25 µg/mL.

For `Nc1nc(/C(=N/OCC(=O)O)C(=O)N[C@@H]2C(=O)N3[C@@H]2S(=O)(=O)C[C@@H]2CC(=O)O[C@@]23C(=O)O)cs1` (stereo in doubt), the MIC (Enterobacter cloacae [1]) was 0.25 µg/mL, the MIC (Escherichia coli [2]) was 0.25 µg/mL and the MIC (Escherichia coli [3]) was 1 µg/mL. For the same compound, the MIC (Enterobacter cloacae [4]) was 1 µg/mL, the MIC (Klebsiella pneumoniae [5]) was 0.5 µg/mL and the MIC (Klebsiella pneumoniae [6]) was 0.5 µg/mL.

For `C[C@H]1[C@H](NC(=O)/C(=N\OC(C)(C)C(=O)O)c2csc(N)n2)C(=O)N1S(=O)(=O)O` (stereo in doubt) [AZTREONAM], the MIC50 (Enterobacterales [16]) was 0.5 µg/mL, the MIC90 (Enterobacterales [16]) was 1 µg/mL and the MIC50 (Enterobacterales [17]) was 0.25 µg/mL. The MIC90 (Enterobacterales [17]) was 1 µg/mL, the MIC50 (Enterobacterales [18]) was 0.25 µg/mL and the MIC90 (Enterobacterales [18]) was 2 µg/mL. For the same compound, the MIC50 (Enterobacterales [19]) was 0.063 µg/mL, the MIC90 (Enterobacterales [19]) was 0.25 µg/mL and the MIC (Escherichia coli [20]) was 0.125 µg/mL.

With `C[C@H](O/N=C(\C(=O)N[C@@H]1C(=O)N2[C@@H]1[S@@+]([O-])C[C@@H]1CC(=O)O[C@@]12C(=O)O)c1csc(N)n1)C(=O)O` (stereo in doubt) the MIC (Enterobacter cloacae [1]) was 0.5 µg/mL, the MIC (Escherichia coli [2]) was 0.25 µg/mL and the MIC (Escherichia coli [3]) was 1 µg/mL. The MIC (Enterobacter cloacae [4]) was 0.25 µg/mL, the MIC (Klebsiella pneumoniae [5]) was 1 µg/mL and the MIC (Klebsiella pneumoniae [6]) was 0.5 µg/mL.
